# Data as given in article PMC10756276, “Highly specific σ2R/TMEM97 ligand FEM-1689 alleviates neuropathic pain and inhibits the integrated stress response” (Proceedings of the National Academy of Sciences of the …, 2023).
# What was measured:
# p-eIF2α in HEK293T cells = assay: p-eIF2α ICC and spectrophotometry in HEK293T cells; type: cell-based, human
# Protocol: (§1) The ICC protocol was based on a previously published protocol ([76]). […] Cells were blocked with 10% normal goat serum (NGS) in PBS-triton X (0.1%). […] Antibodies were incubated at 4 °C overnight. […] It was washed with PBS twice. […] Images were analyzed using Olympus CellSens. […] Number of cells analyzed are detailed in SI Appendix, Tables S3 and S4.
# Human embryonic kidney (HEK) 293 T cells (ATCC # CRL-3216) were generously donated by the Campbell Lab (UT Dallas). Cells were grown at 37 °C with 5% CO2 in complete medium (10% FBS, 1% Pen-Strep in DMEM/F12 + GlutaMax (Gibco #10565-018) in T-75 flasks (Greiner Bio-One #658175). In a 96-well plate (ThermoFisher #165305), cells were plated at a density of 20,000 cells per well and grown to roughly 65% confluency before being treated with FEM-1689. For 2-h FEM-1689 treatment, HEK cells were plated at a density of 32,000 cells per well and treated at roughly 85% confluency. Three to five replicates were made per condition/dose (1/2 log steps ranging from 0.1 to 1,000 nM). ICC was performed to label p-eIF2α and DAPI. Immunofluorescence of HEK cells was quantified using the Synergy HTX Multimode Reader. For further details regarding the culturing of HEK cells, see SI Appendix. […]
# Huma n e mbryon ic kidn ey (HEK) 293T ce lls (ATCC # C RL- 321 6) were ge nerously dona ted by th e Ca mpb ell Lab (UT Dallas). Cell stock s were previously fr ozen at 1 million cells/ml in 90% fetal bov ine s erum (F BS, ThermoFisher #SH300880340) and 10% DMSO. Cells were grown in complete medium (10% FBS, 1% Pen- Strep in DMEM/F12 + GlutaMax (Gibco #10565- 018) in T-75 flasks (Greiner Bio- One #658175). Cells were maintained at 37 °C with 5% CO2 and passaged twice before being plated onto either 96-well or 6-well plates for ICC/spectrophotometry and western blotting, respectively. Cells were counted using the TC20 automated cell counter (Bio- R ad #1450102) using a 1:1 dilution of trypan blue (Gibco #15250061).
# In a 9 6-well p lat e (Therm oFisher #16 530 5), cells were p late d at a de nsity of 20,0 00 cells per w ell a nd gro wn to rou gh ly 65 % conf lu ency before be in g tre ate d w ith F EM- 16 89. For 2 h our F EM- 1689 trea tme nt, HEK ce lls were plated at a density of 32,000 cells per well and treated at roughly 85% confluency. […] Immunofluorescence of HEK cells was quantif ied using the Synergy HTX Multimode Reader. […] Wells were topped with 100 µL of 1X PBS prior to being read. DAPI and p -eIF2α reads were performed at bottom with a gain of 3 5 a nd 45, r espective ly. […]
# fluorescence units (RFUs) of the negative controls were subtracted from each well. P-eIF2α fluorescence was normalized to DAPI in order to control for the number of cells present in the well and then to the fluoresce nce of th e veh icle t reatme nt as a p ercenta ge. […]
# [1] = system: p-eIF2α in mouse DRG neurons; assay: p-eIF2α immunocytochemistry in cultured DRG neurons; type: cell-based; details: for p-eIF2α levels: ISRIB 200 nM
# Protocol: as §1, with “S4. […]” for “S4.”
# T his BSA gradient containing the cells was centrifuged at 900g for 5 min at room temperatur e.
# The pellet containing the cells was resuspended in Br ainPhys media (STEMCell #05790) containing 2% […]
# 1% Gluta Max (Gibco # 350 5 0061). Hu man DRG ne uron s were plated a nd grown o n glass coverslips coate d with po ly-D-lysine (Sigma #P7405). C ultured D RG neurons were plated for 24 hours before being treated.
# Methylglyoxal (Sigma- Aldrich #M0252) and F EM- 1689 were serially diluted in media.
# Mouse samples - DRG cultures […]
# anesthesia and decapitated. […]
# section above with minor differences.
# Mouse DRG neurons were grown in
# SAS-0132 and DKR-1677 were […]
# dissolved in 100% DMSO to a final concentr ation of 200mM and stored at - 20 °C. and DKR-1677 were serially diluted in media. Untreated media was completely replaced with media containing each compound. […]
# Slides were […]
# incubated with 1:2 diluted hydrogen peroxide in distilled water for 10 min at r oom temper ature and washed twice in distilled water. The protease IV was applied to each section and incubated for 5 min at room temperature. Slides were w ashed twice in 1X PBS and RNA scope was performed immediately. A mixture of probes - Tmem97, Scn10a, and Fabp7 – was hybridized for 2 hours at 40 °C in a humidity control tray
structure (smiles),measurement,setting,value
OCCCN1CC[C@@H]2C[C@H]1c1cc(-c3ccc(C(F)(F)F)cc3)ccc12 [FEM-1689],IC50,p-eIF2α in HEK293T cells; 2 h treatment,5.89 nM
same,IC50,p-eIF2α in HEK293T cells; 16 h treatment,0.74 nM
same,IC50,"p-eIF2α in HEK293T cells; Homo sapiens, HEK-293T, 2 h, 2 h treatment",5.9 nM
same,IC50,"p-eIF2α in HEK293T cells; Homo sapiens, HEK-293T, 16 h, 16 h treatment",0.7 nM
same,treatment time of maximal effect on p-eIF2α,"[1]; 100 nM, wild-type mouse DRG neurons",16 h
same,half-life (t1/2) at reducing p-eIF2α levels in vitro,"[1]; 100 nM, wild-type mouse DRG neurons, 0.5-16 h",5.0 h
same,IC50,"[1]; DRG neuron, wild-type mouse DRG neurons, 16 h",30 nM
same,p-eIF2α levels,"[1]; TMEM97KO mouse DRG neurons, 16 h",did not respond
same,p-eIF2α levels,"[1]; wild-type mouse DRG neurons, 16 h",reduced p-eIF2α levels
same,concentration of maximal ISR inhibition (p-eIF2α),"[1]; wild-type mouse DRG neurons, 16 h, comparable to ISRIB 200 nM",100 nM
